Results on 2 compounds are retold here after patent US12599136B2, “Substituted isophthalic acid diamides and their use as herbicides” (Bayer Aktiengesellschaft, priority 2020, dated 2026).

Format in all cases: in vivo
Test [1] has as its system Amaranthus retroflexus. Put plainly: Pre-emergence herbicidal action against AMARE. Conditions: visual score after 3 weeks vs untreated controls. The method, boiled down:
(§1)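 Sandy loam pots, seeds covered with soil, then surface-treated with WP or EC formulations at 600–800 l/ha water plus 0.2% wetting agent. Greenhouse, 3 weeks. Percent damage vs untreated controls.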

Test [2] has as its system Viola tricolor. Put plainly: Pre-emergence herbicidal action against VIOTR. The conditions noted are these: 80 g/ha. In a few lines:
as §1

The subject of test [3] is Pharbitis purpurea. Put plainly: Post-emergence herbicidal action against PHBPU. Conditions: 20 g/ha, visual assessment about 3 weeks after treatment. In a few lines:
(§2)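 Visual % rating (0% = as untreated, 100% = dead) ~3 wk after spraying one-leaf-stage plants grown in sandy loam; WP/EC in water at 600–800 l/ha, 0.2% wetting agent.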

Test [4] concerns Setaria viridis. Put plainly: Pre-emergence herbicidal action against SETVI. Conditions: 80 g/ha. The method, boiled down: as §1
Test [5] concerns Alopecurus myosuroides. Description: Pre-emergence herbicidal action against ALOMY. Conditions: 80 g/ha; visual score after 3 weeks vs untreated controls. In a few lines:
as §1

For test [6], the system named is Viola tricolor. Put plainly: Post-emergence herbicidal action against VIOTR. Conditions: 20 g/ha. The method, boiled down: as §2
Test [7] relates to Matricaria inodora. Description: Pre-emergence herbicidal action against MATIN. Conditions: 80 g/ha; visual score after 3 weeks vs untreated controls. In a few lines: as §1
For test [8], the system named is Digitaria sanguinalis. Description: Post-emergence herbicidal action against DIGSA. The conditions noted are these: 20 g/ha. Here is the method:
Seeds of monocotyledonous and dicotyledonous weed and crop plants are laid out in sandy loam soil in wood-fiber pots, covered with soil and cultivated in a greenhouse under good growth conditions. 2 to 3 weeks after sowing, the test plants are treated at the one-leaf stage. The compounds of the invention, formulated in the form of wettable powders (WP) or as emulsion concentrates (EC), are then sprayed onto the green parts of the plants in the form of an aqueous suspension or emulsion at a water application rate equivalent to 600 to 800 l/ha, with addition of 0.2% wetting agent. After the test plants have been left to stand in the greenhouse under optimal growth conditions for about 3 weeks, the action of the preparations is assessed visually in comparison to untreated controls (herbicidal action in percent (%): 100% activity=the plants have died, 0% activity=like control plants). […] The tables below illustrate, in an illustrative manner, the post-emergence herbicidal action of the compounds of the invention, the herbicidal activity being stated in percent.

For test [9], the system named is Abutilon theophrasti. Put plainly: Pre-emergence herbicidal action against ABUTH. Conditions: 80 g/ha; visual score after 3 weeks vs untreated controls. In a few lines:
as §1

The subject of test [10] is Digitaria sanguinalis. Put plainly: Pre-emergence herbicidal action against DIGSA. The conditions noted are these: 80 g/ha. The method, boiled down: as §1
The subject of test [11] is Abutilon theophrasti. Put plainly: Post-emergence herbicidal action against ABUTH. The method, boiled down:
as §2

Test [12] deals with Setaria viridis. Put plainly: Post-emergence herbicidal action against SETVI. The conditions noted are these: 20 g/ha, visual assessment about 3 weeks after treatment. The method, boiled down:
as §2

The subject of test [13] is Veronica persica. Description: Pre-emergence herbicidal action against VERPE. Conditions: 80 g/ha. In a few lines: as §1
The subject of test [14] is Amaranthus retroflexus. Put plainly: Post-emergence herbicidal action against AMARE. Conditions: visual assessment about 3 weeks after treatment. The method, boiled down: as §2
For test [15], the system named is Echinochloa crus-galli. Description: Pre-emergence herbicidal action against ECHCG. Conditions: 80 g/ha; visual score after 3 weeks vs untreated controls. In a few lines: as §1
The subject of test [16] is Matricaria inodora. Put plainly: Post-emergence herbicidal action against MATIN. Conditions: 20 g/ha, visual assessment about 3 weeks after treatment. In a few lines: as §2

Take `CCN(C)C(=O)c1c(C(F)(F)F)ccc(C(=O)Nc2nnnn2C)c1C` [Example 1-20, N^3-ethyl-N^3-2-dimethyl-N^1-(1-methyl-1H-tetrazol-5-yl)-4-(trifluoromethyl)isophthalamide]: the “Pre-emergence action against AMARE” value was found to be 80% in test [1] (20 g/ha) and 90% in [1] (80 g/ha). Besides, the “Pre-emergence action against VIOTR” value in test [2] was 100%. The “Post-emergence action against PHBPU in %” value in test [3] was found to be 90%. Moreover, the “Pre-emergence action against SETVI” value in [4] is recorded as 100%. Also, the “Pre-emergence action against ALOMY” value in test [5] worked out at 90%. For the same compound, the “Post-emergence action against VIOTR in %” value in test [6] is 90%. Also, in test [7], the “Pre-emergence action against MATIN” value is 100%. Besides, the “Post-emergence action against DIGSA in %” value in test [8] amounted to 80%. Further, the “Pre-emergence action against ABUTH” value in [9] turned out to be 100%. In [10], the “Pre-emergence action against DIGSA” value turned out to be 90%. The “Post-emergence action against ABUTH” value in [11] (5 g/ha) worked out at 80%; in test [11] (20 g/ha), 90%. The “Post-emergence action against SETVI in %” value in test [12] worked out at 80%. The “Pre-emergence action against VERPE” value in test [13] was found to be 80%.

Take `Cc1c(C(=O)Nc2nnnn2C)ccc(C(F)(F)F)c1C(=O)N(C1CC1)C1CC1` [Example 1-40]: the “Pre-emergence action against AMARE” value in test [1] (20 g/ha) and in [1] (80 g/ha) was 100% each time. Moreover, the “Pre-emergence action against VIOTR” value in test [2] turned out to be 100%. Further, the “Post-emergence action against AMARE in %” value in test [14] (5 g/ha) and in test [14] (20 g/ha) was 80% each time. In test [15], the “Pre-emergence action against ECHCG” value turned out to be 80%. Also, the “Pre-emergence action against MATIN” value in test [7] was 90%. In [8], the “Post-emergence action against DIGSA in %” value stood at 90%. In addition, the “Post-emergence action against MATIN in %” value in test [16] is 80%. Also, in test [9], the “Pre-emergence action against ABUTH” value was determined as 80%. For the same compound, the “Pre-emergence action against DIGSA” value in [10] is listed as 100%.
